Experiment: Thermoregulation: intraperitoneal body temperature recorded by implant after IL-1β injection
Type: in vivo, mice
Conditions: for Change in ip body temperature: WT mice
Experimental: FIG. 5A-5B. […] Body temperature was recorded using an ETA-F10 temperature implant (DSI New Brighton, Minn.) that was placed in the peritoneal cavity and fixed to the peritoneal wall. After recording the baseline temperature for 1 hr, rmIL-1β (5.0 μg/kg) was administered by i.p injection. Body temperature of wildtype (n=4) and TRPA1 KO mice (n=4) was recorded for 5 hours post injection. ****p<0.0001. B) IL-1β induces a dose-dependent hypothermic response in mice. After recording the baseline temperature for 1 hr, rmIL-1β (0 [n=4], 0.5 [n=4], 50.0 [n=3] μg/kg) was administered by i.p injection. Body temperature was recorded for 5 hours post injection.
Mice were anesthetized with 2.5% isoflurane with an oxygen flow of 1 L/min. Once anesthetized, the mouse was moved to a supine position with the isoflurane maintained at 2.0% during surgery. A midline incision was made above the peritoneal cavity, with a ETA-F10 temperature implant (DSI New Brighton, Minn.) placed in the peritoneal cavity and tacked to the peritoneal wall. The cavity was then closed, and the mouse monitored every day for 3 days. The mouse was allowed to recover for a minimum of five days prior to any manipulation. The mice were placed on the DIS with baseline ip body temperature recorded for 1 hour prior to IL-1β or saline injection. The ip body temperature recording then continued for 5 hours post injection.
Thermoregulation, specifically in cold sensing, is another major function of the TRPA1 ion channel. When housed at approximately 23° C., WT mice injected with murine IL-1β (5 μg/kg) have significant decrease in body temperature (t-test, p<0.0001) peaking at a temperature change of −2.3±0.15° C., while TRPA1 KO mice have no significant change in body temperature after IL-1β (5 μg/kg) peaking at 0.18±0.40° C. (FIG. 5A). […] However, there was no significant change in ip body temperature after saline ([…]) (t-test, p>0.05) (FIG. 5B). This indicates a previously unknown mechanism of IL-1β fever singling through TRPA1+ fibers of the vagus nerve, linking TRPA1's role in both thermoregulation as well as afferent inflammatory signaling through the vague nerve.

IL-1β: interleukin 1β; recombinant human IL-1β for nerve recordings, murine (rmIL-1β) for thermoregulation
Peak body temperature change (TRPA1 KO mice, IL-1β 5 μg/kg ip): 0.18±0.40 °C | Peak body temperature change (WT mice housed at approximately 23° C., murine IL-1β 5 μg/kg ip): −2.3±0.15 °C | Change in ip body temperature (IL-1β 0.5 μg/kg): significant decreases | Change in ip body temperature (IL-1β 50 μg/kg): significant decreases
